Test results from US20180284095A1, “BIOMARKERS ASSOCIATED WITH LSD1 INHIBITORS AND USES THEREOF” (Oryzon Genomics, S.A., priority 2015, published 2018).

Columns and labels:
TUBB3 = assay: Microarray gene expression in brain, spleen and liver of Hsd:Athymic Nude-Foxn1nu mice (Example 7), housekeeping gene; format: in vivo, mouse
Procedure: (§1) Total RNA was extracted from samples using the RNeasy extraction kit (Qiagen). The quality and concentration of the RNA was analyzed using the Agilent 2100 bioanalyzer and NanoDrop™ ND-1000 (Thermo Scientific). Samples with RNA integrity number (RIN)<6.0 were discarded. Total RNA (0.5 μg) amplification and labelling with Cy3 or Cy5 was carried out using the Eberwein mRNA amplification procedure (Van Gelder et al, Proc Natl Acad Sci USA 1990, 87:1663-1667) employing the MessageAmp™ aRNA amplification kit from Ambion (Applied Biosystems) following the manufacturer's instructions with minor modifications. As hybridization controls, plant mRNAs were transcribed from a plasmid containing the Zea mays Xet (xyloglucan endo-transglycosylase) cDNA and from a plasmid containing the Zea mays Zmmyb42 cDNA, independently prepared Cy3 and Cy5 labelled aRNA from these two RNAs using the Eberwein mRNA amplification procedure (as disclosed in Cerdà et al, Gen Comp Endocrinol 2008, 156:470-481).
(§2) The Cy3- and Cy5-labelled cRNAs and spikes were combined and hybridized to the microarray described in Example 2.6 for 17 h at 60° C. using Agilent's gaskets G2534-60002, G2534A hybridization chambers and DNA Hybridization Oven G2545A, according to the manufacturer's instructions. More specifically, equal amounts of Cy3 and Cy5 labeled Xet aRNA as well as equal amounts of Cy3 and Cy5 labeled Zmmyb42 aRNA were spiked into each mixture hybridized to the array. Arrays were washed and raw data were obtained using Agilent's DNA Microarray Scanner G2505B and Feature Extraction software (v10.1). The raw fluorescence intensity data were processed using applicant's proprietary software, and consists in the following operations:
(§3) Data normalization was carried out by an improved version of the nonlinear Q-splines normalization method (Workman et al., Genome Biol 2002, 3(9):research0048.1-0048.16). Normalization results were presented graphically as MA plots, as first described by Dudoit et al (Dudoit et al, Statistica Sinica, 2002, 12:111-139). Each point corresponds to a probe of the DNA array. M values (vertical axis) are the log-differential expression ratios. A values (horizontal axis) are the log-intensities of the spots. M and A are calculated from the Cy5 and Cy3 intensity values as of each spot. The DNA Array data is normalized using an improved version of non-linear Q-Splines normalization described by Workman et al., Genome Biol 2002, 3(9):research0048.1-0048.16. This process is useful to correct the deviation of the M values from the statistical assumption that most of the spots have M=0 in MA plots. The method allows the adjustment of all M values to form a cloud centered at M=0 in all intensity ranges. The data used to calculate the normalization fitting curve is the totality of the raw measurement dataset, excluding the signals for the probes for the spiked-in plant RNA controls and negative controls. In order to be able to normalize properly the data among all the experiments, the probe-set must include an important group of genes that should have no change (M=0) in the experiment. The normalization function is then applied to all the data, including controls.
(§4) Normalized and log-transformed data were used to calculate log 2 (sample/control) and Fold Change (FC) values. No background subtraction was applied to the signal intensity values during data processing, permitting robust selection of differentially expressed genes with low expression levels at the cost of potential sub-estimation of change when intensity levels are close to the array background level.
(§5) Powered Compound 3, 4 or 5 was dissolved in a 20% solution of 2-hydroxypropyl-R-cyclodextrin in water at the appropriate concentrations, vortexed and placed in an ultrasonic bath for 5 minutes.
(§6) Hsd:Athymic Nude-Foxn1nu mice were maintained in air- and temperature-controlled cages with regular supply of water and food. A maximum of 6 mice/cage were raised. […]

TUBB2C = assay: as above; format: in vivo, mouse
Procedure: as §1, §2, §3, §4, §5, §6

**Q.** How did the “Hybridization signal sample_Cy5” value (TUBB3; BRAIN, TUBB3, 3.3 mg/kg) turn out when `N[C@H]1CCN(CCN[C@H]2C[C@@H]2c2ccc(-c3cccc(C(F)(F)F)c3)cc2)C1` (racemic) [Compound 5, (S)-1-(2-(((trans)-2-(3′-(trifluoromethyl)-[1,1′-biphenyl]-4-yl)cyclopropyl)amino)ethyl)pyrrolidin-3-amine] was run?
**A.** 4740.83

**Q.** And the “log2 (sample/control)” value (TUBB3; BRAIN, TUBB3, 3.3 mg/kg vs VEH)?
**A.** −0.05126

**Q.** What about the “Hybridization signal sample_Cy5” value (TUBB3; BRAIN, TUBB3, 11 mg/kg) of the same molecule?
**A.** 6217.25

**Q.** What about the “log2 (sample/control)” value (TUBB3; BRAIN, TUBB3, 11 mg/kg vs VEH) of the same molecule?
**A.** −0.02834

**Q.** And the “Hybridization signal sample_Cy5” value (TUBB3; BRAIN, TUBB3, 33 mg/kg)?
**A.** 5722.06

**Q.** What about the “log2 (sample/control)” value (TUBB3; BRAIN, TUBB3, 33 mg/kg vs VEH) of the same molecule?
**A.** 0.1073

**Q.** What about the “Hybridization signal sample_Cy5” value (TUBB3; LIVER, TUBB3, 3.3 mg/kg) of the same molecule?
**A.** 49.0459

**Q.** What about the “log2 (sample/control)” value (TUBB3; LIVER, TUBB3, 3.3 mg/kg vs VEH) of the same molecule?
**A.** −0.4483

**Q.** And the “Hybridization signal sample_Cy5” value (TUBB3; LIVER, TUBB3, 11 mg/kg)?
**A.** 43.197

**Q.** What about the “log2 (sample/control)” value (TUBB3; LIVER, TUBB3, 11 mg/kg vs VEH) of the same molecule?
**A.** −0.6411

**Q.** What about the “Hybridization signal sample_Cy5” value (TUBB3; LIVER, TUBB3, 33 mg/kg) of the same molecule?
**A.** 52.03

**Q.** And the “log2 (sample/control)” value (TUBB3; LIVER, TUBB3, 33 mg/kg vs VEH)?
**A.** −0.4211

**Q.** What about the “Hybridization signal sample_Cy5” value (TUBB3; SPLEEN, TUBB3, 3.3 mg/kg) of the same molecule?
**A.** 88.3418

**Q.** And the “log2 (sample/control)” value (TUBB3; SPLEEN, TUBB3, 3.3 mg/kg vs VEH)?
**A.** 0.169

**Q.** What about the “Hybridization signal sample_Cy5” value (TUBB3; SPLEEN, TUBB3, 11 mg/kg) of the same molecule?
**A.** 229.738

**Q.** And the “log2 (sample/control)” value (TUBB3; SPLEEN, TUBB3, 11 mg/kg vs VEH)?
**A.** 1.521

**Q.** And the “Hybridization signal sample_Cy5” value (TUBB3; SPLEEN, TUBB3, 33 mg/kg)?
**A.** 167.826

**Q.** And the “log2 (sample/control)” value (TUBB3; SPLEEN, TUBB3, 33 mg/kg vs VEH)?
**A.** 1.398

**Q.** And the “Hybridization signal sample_Cy5” value (TUBB2C; BRAIN, 3.3 mg/kg)?
**A.** 10642

**Q.** And the “log2 (sample/control)” value (TUBB2C; BRAIN, 3.3 mg/kg vs VEH)?
**A.** −0.01396

**Q.** And the “Hybridization signal sample_Cy5” value (TUBB2C; BRAIN, 11 mg/kg)?
**A.** 11161.1

**Q.** And the “log2 (sample/control)” value (TUBB2C; BRAIN, 11 mg/kg vs VEH)?
**A.** −0.06127

**Q.** And the “Hybridization signal sample_Cy5” value (TUBB2C; BRAIN, 33 mg/kg)?
**A.** 12584.1

**Q.** What about the “log2 (sample/control)” value (TUBB2C; BRAIN, 33 mg/kg vs VEH) of the same molecule?
**A.** −0.05145

**Q.** And the “Hybridization signal sample_Cy5” value (TUBB2C; LIVER, 3.3 mg/kg)?
**A.** 3670.67

**Q.** And the “log2 (sample/control)” value (TUBB2C; LIVER, 3.3 mg/kg vs VEH)?
**A.** 0.3692

**Q.** And the “Hybridization signal sample_Cy5” value (TUBB2C; LIVER, 11 mg/kg)?
**A.** 3985.13

**Q.** What about the “log2 (sample/control)” value (TUBB2C; LIVER, 11 mg/kg vs VEH) of the same molecule?
**A.** 0.457

**Q.** And the “Hybridization signal sample_Cy5” value (TUBB2C; LIVER, 33 mg/kg)?
**A.** 4335.41

**Q.** And the “log2 (sample/control)” value (TUBB2C; LIVER, 33 mg/kg vs VEH)?
**A.** 0.3205

**Q.** What about the “Hybridization signal sample_Cy5” value (TUBB2C; SPLEEN, 3.3 mg/kg) of the same molecule?
**A.** 8986.8

**Q.** And the “log2 (sample/control)” value (TUBB2C; SPLEEN, 3.3 mg/kg vs VEH)?
**A.** −0.9476

**Q.** And the “Hybridization signal sample_Cy5” value (TUBB2C; SPLEEN, 11 mg/kg)?
**A.** 9222.71

**Q.** What about the “log2 (sample/control)” value (TUBB2C; SPLEEN, 11 mg/kg vs VEH) of the same molecule?
**A.** −0.8739

**Q.** And the “Hybridization signal sample_Cy5” value (TUBB2C; SPLEEN, 33 mg/kg)?
**A.** 6535.64

**Q.** And the “log2 (sample/control)” value (TUBB2C; SPLEEN, 33 mg/kg vs VEH)?
**A.** −1.41
